Results on one molecule are retold here after US20220127298A1, “THERMOSPOROTHRIX HAZAKENSIS-DERIVED ANTIBACTERIALLY ACTIVE SUBSTANCE” (KENNAN EISEI KOGYO CO., LTD., priority 2019, published 2022).

The subject of series [1] is Thermosporothrix narukonensis F4^T. The experiment in a line: Antibacterial spectrum test, paper disk assay. Type of series: cell-based. The conditions noted are these: 50 μL of 1000 γ solution in methanol, YS medium, 50° C., 2 days. The method, then: (§1) The antibacterial activity of HK-1 was assayed using a paper disk against the following bacterial bodies.
(§2) A piece of ice out of a glycerol stock of S. griseus stored at −80° C. was planarly inoculated on the YMPD agar culture medium with a toothpick. This was incubated at 28° C. for 5 days. After the incubation, a small amount of spore was scraped off with a swab, and planarly inoculated on the YMPD culture medium. A piece of paper disk was placed on a filter paper, onto which 50 μL of a HK-1 solution adjusted to 1000 γ with methanol was dropped and dried. Then the disk was placed on the agar culture medium coated with the bacterial body. After incubation at 28° C. for 4 days, the diameter of the inhibition ring was measured.
(§3) Assays were performed in the same manner as in 3 above, except that the incubation conditions were changed to YS culture medium (see Example 1), 50° C., and 2-day period.

In series [2] the test system is Thermosporothrix hazakensis SK20-1^T NBRC 105916^T. The experiment in a line: Antibacterial spectrum test, paper disk assay. Type of series: cell-based. The conditions noted are these: 50 μL of 1000 γ solution in methanol, YS medium, 50° C., 2 days. The protocol:
as §1, §2, §3

The nature of series [3]: pH stability by HPLC analysis. The format is physicochemical. Conditions: methanol solution 1000 γ. The method, then: Into a 50-mL Falcon tube, 20 mg of HK-1 was weighed out using an electric balance, and therein 20 mL of methanol (1000 γ) was added followed by gentle stirring. Each 3.3 mL was aliquoted to totally two 15-mL Falcon tubes. To one of them 20 μL of 1 N sodium hydroxide was added followed by gentle stirring. The pH was tested with a pH test paper. Ten (10) μL of each sample was subjected to HPLC. The HPLC analysis conditions are as follows. Column: CAPCELL PAK Cis 5 μm, 4.6 mm 1. D×150 mm Mobile phase A: 0.1% aqueous solution of trifluoroacetic acid Mobile phase B: acetonitrile Temperature of thermostatic chamber for column: 40° C. Flow velocity: 1 mL/min UV: 254 nm Elution method: concentration gradient • 0 min to 18 min, B concentration 50% to 100% • 18.1 min to 23 min, B concentration 100% • 23.1 min to 25 min, B concentration 50%

The next series has as its system Streptomyces sp. AGRN-7. As to the kind of experiment: Antibacterial spectrum test, paper disk assay. The format is cell-based. The conditions noted are these: 50 μL of 1000 γ solution in methanol, ISP2 medium, 45° C., 2 days. The method, then:
as §1, §2
An assay was performed in the same manner as in 3 above, except that the incubation conditions were changed to ISP2 culture medium, 45° C., and 2-day period.

For series [4], the system named is Bacillus subtilis NBRC 3134^T. As to the kind of experiment: Measurement of minimum inhibitory concentration, dilution method with liquid culture medium. The format is cell-based. Conditions: NBRC3134, LB liquid medium, 37° C., 135 rpm, 18 hours, visual observation and OD600. From the text:
The minimum inhibitory concentration (MIC) is one of the antibiotic susceptibility tests, and means the minimum concentration of an antimicrobial substance at which the visible growth of a microorganism can be inhibited. In the research field, the MIC measurement is used, for example, to compare the effects of a new antibiotic substance and a conventional substance, or to examine actions on several strains, and is regarded as an important criterion for evaluating antibiotic substances. The MIC of “HK-1” which was obtained hereunder as the antibacterial active substance was measured using the dilution method with a liquid culture medium.
A piece of ice out of a glycerol stock of G. stearothermophilus stored at −80° C. was planarly inoculated on the LB agar culture medium with a toothpick. This was incubated at 60° C. for 18 hours. One (1) cm^2 of the culture medium was excavated with a toothpick, placed into a long test tube containing 10 mL of a liquid LB culture medium, and subjected to a shaking culture at 60° C., and 300 rpm, for 18 hours. The culture solution was diluted with sterile water to about McF standard No. 1.
The preparation was performed in the same manner as in 1 above, only except that the temperature was changed to 37° C.
Two (2) mg of HK-1 was weighed out into a 2 mL Eppendorf tube using an electric balance. […]

SMILES strings stand for the structures. Converted amounts (≈) assume the structure as drawn.

Consider `COc1cc(OOc2cc(OC)c3c(c2-c2c(O)c(Cl)c(C)c4c2C(O)c2c(Cl)c(O)cc(O)c2C4=O)C(OC2OC(C)C(O)C2O)c2c(Cl)c(OC)c(Cl)c(C)c2C3=O)c(-c2c(O)c(Cl)c(C)c3c2C(O)c2c(Cl)c(O)cc(O)c2C3=O)c2c1C(=O)c1c(C)c(Cl)c(OC)c(Cl)c1C2OC1OC(C)C(O)C1O` (stereo not drawn) [HK-1], for which the values for the inhibition ring diameter (in series [1]; in series [2]; with Streptomyces sp. AGRN-7) were 10.0 mm, 10.0 mm and 22.0 mm, respectively. Besides, the “pH stability (degradation peak in HPLC analysis)” value in series [3] (pH adjusted to 9 with 1 N sodium hydroxide) and in series [3] (pH not adjusted) was “stable with no recognizable degradation peak” each time. In series [4], this molecule yielded an MIC of 0.78 µg/mL (≈ 0.474 µM).
